The record followed here is patent publication US10342797B2, “Solubility of therapeutic agents” (LivePet LLC, priority 2016, dated 2019).

Series [1] in a line: Solubility in lipofullerene base, confirmed by a turbidometer. How it is done: Each of the above mixtures were sonicated for 30 seconds followed by vortexing for 12 hours in the dark.
The next series can be described thus: Water solubility. As to conditions: read-out: Water solublity. It counts as physicochemical.
Another series concerns AsPC-1 cells. Nature of the series: Xenograft studies. It counts as in vivo, nude mice. The conditions noted are these: oral gavage, 1 mg of triptolide/1 mL of C60-olive oil base, ~28 days. On the procedure:
AsPC-1 cells were purchased from American Type Culture Collection (ATCC). Cells were harvested from sub-confluent cultures after brief exposure to 0.25% trypsin and 0.2% EDTA. The cells were washed once in serum-free medium and re-suspended thereafter in PBS. Only suspensions consisting of single cells with >90% viability were used for the injections. Mice were injected with 1.5×10^6 cells sub-cutaneously (S.C) on the right side of hind leg of each mouse using a 23-gauge needle. After tumor transplant, the mice were observed daily for one week, before randomly assigning them to the treatment groups (n=5). The animals thereafter received triptolide (1 mg of triptolide/1 mL of C60-olive oil base) by oral gavage starting on day 15 or on tumor volume reaching ˜40-70 mm^3. The treatment was continued until ˜28 days from first dose. […] Tumor size was measured once a week. At the end of the experimental period, the animals were euthanized.

Converted amounts (≈) assume the structure as drawn.

The molecule `CC[C@]1(O)C[C@H]2CN(CCc3c([nH]c4ccccc34)[C@@](C(=O)OC)(c3cc4c(cc3OC)N(C=O)[C@H]3[C@@](O)(C(=O)OC)[C@H](OC(C)=O)[C@]5(CC)C=CCN6CC[C@]43[C@@H]65)C2)C1` [vincristine] returned a Fold solubility in series [1] (12 h) of 17. In addition, in the series “Water solubility”, the solubility is 30 µg/mL (≈ 36.4 µM).
In turn, `C#Cc1cccc(Nc2ncnc3cc(OCCOC)c(OCCOC)cc23)c1` [erlotinib] returned a Fold solubility in series [1] (12 h) of 3. In “Water solubility”, the solubility was found to be 400 µg/mL (≈ 1020 µM).
On the same counts, the results for `CC(=O)O[C@H]1C(=O)[C@@]2(C)[C@H]([C@H](OC(=O)c3ccccc3)[C@]3(O)C[C@H](OC(=O)[C@H](O)[C@@H](NC(=O)c4ccccc4)c4ccccc4)C(C)=C1C3(C)C)[C@]1(OC(C)=O)CO[C@@H]1C[C@@H]2O` [paclitaxel] are 90 and 5.56 µg/mL (≈ 6.51 µM).
Molecule `CC[C@@]1(O)C(=O)OCc2c1cc1n(c2=O)Cc2cc3ccccc3nc2-1` [camptothecin] gave a Fold solubility in series [1] (lipofullerene base compared to solubility in water) of 5. The solubility in “Water solubility” was determined as 107 µg/mL (≈ 307 µM).
`CC(C)[C@]12O[C@H]1[C@@H]1O[C@]13[C@]1(O[C@H]1C[C@H]1C4=C(CC[C@@]13C)C(=O)OC4)[C@@H]2O` [triptolide]: in series [1] (lipofullerene base of Example 1, nitrogen gas atmosphere, stirred for 2 hours), the “amount of triptolide dissolved in lipofullerene base” value is on record as “About 2 gm/1000 mL”. For the same molecule, the tumor size entry in the series on AsPC-1 cells (50 μg/kg), with AsPC-1 cells (100 μg/kg) and in the series with AsPC-1 cells (250 μg/kg) was “tumor regression was observed” in each case.
As to `CC(=O)O[C@@]12CO[C@@H]1C[C@H](O)[C@@]1(C)C(=O)[C@H](O)C3=C(C)[C@@H](OC(=O)[C@H](O)[C@@H](NC(=O)OC(C)(C)C)c4ccccc4)C[C@@](O)([C@@H](OC(=O)c4ccccc4)[C@H]21)C3(C)C` [docetaxel], in series [1] (12 h), the Fold solubility is greater than 100.
